Experimental data from patent publication US11420956B2, “Ureas having Androgen Receptor degradation activity and uses thereof” (ACCUTAR BIOTECHNOLOGY INC., priority 2019, dated 2022).

Target: T1, androgen receptor (AR) (Homo sapiens, UniProt P10275, T878A)
T1 construct: endogenous in cells; host or cells: LNCAP
T1 sequence (P10275 1-920 T878A): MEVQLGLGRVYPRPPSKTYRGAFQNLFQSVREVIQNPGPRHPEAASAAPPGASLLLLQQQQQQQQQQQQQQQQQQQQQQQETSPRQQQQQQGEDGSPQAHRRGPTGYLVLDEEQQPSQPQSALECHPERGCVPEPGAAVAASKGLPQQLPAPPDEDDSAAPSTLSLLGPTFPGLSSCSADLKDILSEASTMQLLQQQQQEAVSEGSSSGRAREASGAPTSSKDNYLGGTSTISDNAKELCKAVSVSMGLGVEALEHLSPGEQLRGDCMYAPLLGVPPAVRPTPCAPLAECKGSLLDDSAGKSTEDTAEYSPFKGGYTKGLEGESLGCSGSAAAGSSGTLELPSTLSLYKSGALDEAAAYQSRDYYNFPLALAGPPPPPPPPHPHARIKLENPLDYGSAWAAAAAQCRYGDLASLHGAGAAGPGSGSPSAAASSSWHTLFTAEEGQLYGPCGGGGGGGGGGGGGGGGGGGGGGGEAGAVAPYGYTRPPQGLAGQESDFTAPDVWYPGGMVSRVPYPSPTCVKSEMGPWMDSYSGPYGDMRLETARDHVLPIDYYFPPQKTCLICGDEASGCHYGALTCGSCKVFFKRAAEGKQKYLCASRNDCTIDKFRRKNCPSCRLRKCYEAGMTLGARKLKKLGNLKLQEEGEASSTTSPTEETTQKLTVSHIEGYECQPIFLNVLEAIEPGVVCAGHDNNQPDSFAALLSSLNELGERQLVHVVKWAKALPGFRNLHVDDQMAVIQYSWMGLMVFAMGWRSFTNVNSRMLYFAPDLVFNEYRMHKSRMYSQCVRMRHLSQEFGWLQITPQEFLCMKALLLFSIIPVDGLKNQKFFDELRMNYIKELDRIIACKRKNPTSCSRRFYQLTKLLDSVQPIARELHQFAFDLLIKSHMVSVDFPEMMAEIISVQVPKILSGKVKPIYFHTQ
Test: AR degradation in LNCAP cells (Western blot)
Type: cell-based
Conditions: 24 hours after administration
Experimental: LNCAP, VCAP and 22Rv1 cells were plated in 24-well plates at 1.5×10E5 cells/well in the RPMI growth medium containing 10% FBS and 1% Penicillin Streptomycin, and then incubated at 37° C. overnight. The following day, the test compound was administered to the cells by using 1000× compound stock solution prepared in DMSO at various concentrations. After administration of the compound, the cells were then incubated at 37° C. for 24 hours. Upon completion, the cells were washed with PBS and protein was collected in Laemmli sample buffer (1×; VWR International). Proteins in cell lysate were separated by SDS-PAGE and transferred to Odyssey nitrocellulose membranes (Licor) with iblot® dry blotting transfer system (ThermoFisher). Nonspecific binding was blocked by incubating membranes with Intercept Blocking Buffer (Licor) for 1 hour at room temperature with gentle shaking. The membranes were then incubated overnight at 4° C. with Primary antibodies rabbit anti-AR (1:1,000, Cell Signaling, 5153) and mouse anti-GAPDH (1:5,000, Santa Cruz Biotechnology, sc-47724) diluted in Intercept Blocking Buffer containing 0.1% Tween 20. After washing 3 times with TBS-T, the membranes were incubated with IRDye® […] goat anti-mouse IgG (1:20,000, Licor) or IRDye® […] goat anti-rabbit IgG (1:20,000, Licor) for 1 hour. After TBS-T washes, membranes were rinsed in TBS and scanned on Odyssey® CLx Imaging System (Licor). The bands were quantified using Image Studio™ Software (Licor).
Tables 5 and 6 summarize the androgen receptor (AR) degradative activity of exemplary compounds in LNCAP, VCAP and 22Rv1 cell lines 24 hours after administration. DC50: compound concentration needed for 50% target protein degradation.

SMILES	DC50
C[C@@H]1CN(c2ccc(C#N)c3ncccc23)[C@@H](C)CN1C(=O)Nc1ccc(N2CCC(CN3CCN(c4cc5c(cc4F)C(=O)N(C4CCC(=O)NC4=O)C5=O)CC3)CC2)nc1 (stereo partly drawn) [Compound 2-22, (2R,5S)-4-(8-cyanoquinolin-5-yl)-N-(6-(4-((4-(2-(2,6-dioxopiperidin-3-yl)-6-fluoro-1,3-dioxoisoindolin-5-yl)piperazin-1-yl)methyl)piperidin-1-yl)pyridin-3-yl)-2,5-dimethylpiperazine-1-carboxamide]	> 100 nM
C[C@@H]1CN(c2ccc(C#N)c(Cl)c2)[C@@H](C)CN1C(=O)Nc1ccc(N2CCC(CN3CCN(c4ccc5c(c4)C(=O)N(C4CCC(=O)NC4=O)C5=O)CC3)CC2)cc1F (stereo partly drawn) [Compound 1-23, (2R,5S)-4-(3-chloro-4-cyanophenyl)-N-(4-(4-((4-(2-(2,6-dioxopiperidin-3-yl)-1,3-dioxoisoindolin-5-yl)piperazin-1-yl)methyl)piperidin-1-yl)-2-fluorophenyl)-2,5-dimethylpiperazine-1-carboxamide]	≤ 10 nM
C[C@@H]1CN(c2ccc(C#N)c3ncccc23)[C@@H](C)CN1C(=O)Nc1ccc(N2CCC(CN3CCN(c4ccc5c(c4)CN([C@H]4CCC(=O)NC4=O)C5=O)CC3)CC2)c(F)c1 [Compound 2-21, (2R,5S)-4-(8-cyanoquinolin-5-yl)-N-(4-(4-((4-(2-((S)-2,6-dioxopiperidin-3-yl)-1-oxoisoindolin-5-yl)piperazin-1-yl)methyl)piperidin-1-yl)-3-fluorophenyl)-2,5-dimethylpiperazine-1-carboxamide]	> 100 nM
C[C@@H]1CN(c2ccc(C#N)c3ncccc23)[C@@H](C)CN1C(=O)Nc1cc(F)c(N2CCC(CN3CCN(c4ccc5c(c4)C(=O)N(C4CCC(=O)NC4=O)C5=O)CC3)CC2)cc1F (stereo partly drawn) [Compound 2-17, (2R,5S)-4-(8-cyanoquinolin-5-yl)-N-(4-(4-((4-(2-(2,6-dioxopiperidin-3-yl)-1,3-dioxoisoindolin-5-yl)piperazin-1-yl)methyl)piperidin-1-yl)-2,5-difluorophenyl)-2,5-dimethylpiperazine-1-carboxamide]	> 100 nM
C[C@@H]1CN(c2ccc(C#N)c3ncccc23)[C@@H](C)CN1C(=O)Nc1ccc(N2CCC(CN3CCN(c4cc5c(cc4F)C(=O)N(C4CCC(=O)NC4=O)C5=O)CC3)CC2)c(F)c1 (stereo partly drawn) [Compound 2-24, (2R,5S)-4-(8-cyanoquinolin-5-yl)-N-(4-(4-((4-(2-(2,6-dioxopiperidin-3-yl)-6-fluoro-1,3-dioxoisoindolin-5-yl)piperazin-1-yl)methyl)piperidin-1-yl)-3-fluorophenyl)-2,5-dimethylpiperazine-1-carboxamide]	> 100 nM
CC(C)N(CC1CCN(c2ccc(NC(=O)N3C[C@H](C)N(c4ccc(C#N)c(Cl)c4)C[C@H]3C)cn2)CC1)C1CC(Oc2ccc3c(c2)C(=O)N(C2CCC(=O)NC2=O)C3=O)C1 (stereo partly drawn) [Compound 1-11, (2R,5S)-4-(3-chloro-4-cyanophenyl)-N-(6-(4-((((1r,3r)-3-((2-(2,6-dioxopiperidin-3-yl)-1,3-dioxoisoindolin-5-yl)oxy)cyclobutyl)(isopropyl)amino)methyl)piperidin-1-yl)pyridin-3-yl)-2,5-dimethylpiperazine-1-carboxamide]	≤ 10 nM
C[C@@H]1CN(c2ccc(C#N)c(C(F)(F)F)c2)[C@@H](C)CN1C(=O)Nc1ccc(N2CCC(CN3CCN(c4ccc5c(c4)CN([C@H]4CCC(=O)NC4=O)C5=O)CC3)CC2)c(F)c1 [Compound 1-50, (2R,5S)-4-(4-cyano-3-(trifluoromethyl)phenyl)-N-(4-(4-((4-(2-((S)-2,6-dioxopiperidin-3-yl)-1-oxoisoindolin-5-yl)piperazin-1-yl)methyl)piperidin-1-yl)-3-fluorophenyl)-2,5-dimethylpiperazine-1-carboxamide]	≤ 10 nM
C[C@H]1CN(C(=O)Nc2ccc(N3CCC(CN4CCN(c5ccc6c(c5)C(=O)N(C5CCC(=O)NC5=O)C6=O)CC4)CC3)nc2)CCN1c1ccc(C#N)c2ncccc12 (stereo partly drawn) [Compound 2-15, (3S)-4-(8-cyanoquinolin-5-yl)-N-(6-(4-((4-(2-(2,6-dioxopiperidin-3-yl)-1,3-dioxoisoindolin-5-yl)piperazin-1-yl)methyl)piperidin-1-yl)pyridin-3-yl)-3-methylpiperazine-1-carboxamide]	> 100 nM
C[C@@H]1CN(c2ccc(C#N)c(C(F)(F)F)c2)[C@@H](C)CN1C(=O)Nc1cnc(N2CCC(CN3CCN(c4ccc5c(c4)CN([C@H]4CCC(=O)NC4=O)C5=O)CC3)CC2)nc1 [Compound 1-49, (2R,5S)-4-(4-cyano-3-(trifluoromethyl)phenyl)-N-(2-(4-((4-(2-((S)-2,6-dioxopiperidin-3-yl)-1-oxoisoindolin-5-yl)piperazin-1-yl)methyl)piperidin-1-yl)pyrimidin-5-yl)-2,5-dimethylpiperazine-1-carboxamide]	≤ 10 nM
C[C@@H]1CN(c2ccc(C#N)c(Cl)c2)[C@@H](C)CN1C(=O)Nc1ccc(N2CCC(CN3CCN(c4cc5c(cc4F)C(=O)N([C@H]4CCC(=O)NC4=O)C5=O)CC3)CC2)nc1 [Compound 1-54, (2R,5S)-4-(3-chloro-4-cyanophenyl)-N-(6-(4-((4-(2-(2,6-dioxopiperidin-3-yl)-6-fluoro-1,3-dioxoisoindolin-5-yl)piperazin-1-yl)methyl)piperidin-1-yl)pyridin-3-yl)-2,5-dimethylpiperazine-1-carboxamide]	≤ 10 nM
COc1cc(N2C[C@@H](C)N(C(=O)Nc3ccc(N4CCC(CN5CCN(c6ccc7c(c6)CN([C@H]6CCC(=O)NC6=O)C7=O)CC5)CC4)nc3)C[C@@H]2C)ccc1C#N [Compound 1-33, (2R,5S)-4-(4-cyano-3-methoxyphenyl)-N-(6-(4-((4-(2-((S)-2,6-dioxopiperidin-3-yl)-1-oxoisoindolin-5-yl)piperazin-1-yl)methyl)piperidin-1-yl)pyridin-3-yl)-2,5-dimethylpiperazine-1-carboxamide]	≤ 10 nM
C[C@@H]1CN(c2ccc(C#N)c(C(F)(F)F)c2)[C@@H](C)CN1C(=O)Nc1ccc(N2CCC(CN3CCN(c4ccc5c(c4)C(=O)N(C4CCC(=O)NC4=O)C5=O)CC3)CC2)c(F)c1 (stereo partly drawn) [Compound 1-45, (2R,5S)-4-(4-cyano-3-(trifluoromethyl)phenyl)-N-(4-(4-((4-(2-(2,6-dioxopiperidin-3-yl)-1,3-dioxoisoindolin-5-yl)piperazin-1-yl)methyl)piperidin-1-yl)-3-fluorophenyl)-2,5-dimethylpiperazine-1-carboxamide]	≤ 10 nM
C[C@H]1CN(C(=O)Nc2cnc(N3CCC(CN4CCN(c5ccc6c(c5)C(=O)N(C5CCC(=O)NC5=O)C6=O)CC4)CC3)nc2)CCN1c1ccc(C#N)c2ncccc12 (stereo partly drawn) [Compound 2-16, (3S)-4-(8-cyanoquinolin-5-yl)-N-(2-(4-((4-(2-(2,6-dioxopiperidin-3-yl)-1,3-dioxoisoindolin-5-yl)piperazin-1-yl)methyl)piperidin-1-yl)pyrimidin-5-yl)-3-methylpiperazine-1-carboxamide]	> 100 nM
C[C@@H]1CN(c2ccc(C#N)c(Cl)c2)[C@@H](C)CN1C(=O)Nc1ccc(N2CCC(CN3CCN(c4ccc5c(c4)C(=O)N(C4CCC(=O)NC4=O)C5=O)CC3)CC2)c(F)c1 (stereo partly drawn) [Compound 1-47, (2R,5S)-4-(3-chloro-4-cyanophenyl)-N-(4-(4-((4-(2-(2,6-dioxopiperidin-3-yl)-1,3-dioxoisoindolin-5-yl)piperazin-1-yl)methyl)piperidin-1-yl)-3-fluorophenyl)-2,5-dimethylpiperazine-1-carboxamide]	≤ 10 nM
